# The supplement of paper PMC4862054
# Test system: MCF-10A
# Conditions: 72 h
# Procedure, shortened: (§1)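 The plates used were 384-well plates holding compound at 5 concentrations in 10-fold steps across a compound-specific 10,000-fold range, into which breast cancer cell lines were seeded in 20 µl suspension. Following 72 h incubation, CellTox Green fluorescence was read at 485/520 nm, and CellTiter-Glo luminescence was read after 10 min at room temperature. Normalisation on each plate used 0.1 % DMSO and a positive kill control. Dose-response curves gave the EC50, which was censored at the top concentration.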
row,Compound,"EC50, CellTiter-Glo [nM]"
1,CC[C@@H]1C(=O)N(C)c2cnc(Nc3ccc(C(=O)NC4CCN(C)CC4)cc3OC)nc2N1C1CCCC1 [BI 2536],34
2,O=C(/C=C/c1cccnc1)NCCCCC1CCN(C(=O)c2ccccc2)CC1 [Daporinad],7.85
3,COc1cc2nccc(Oc3ccc(NC(=O)Nc4cc(C)on4)c(Cl)c3)c2cc1OC [Tivozanib],8730
4,CC1=C(/C=C/C(C)=C/C=C/C(C)=C/C(=O)O)C(C)(C)CCC1 [Tretinoin],1990
5,C=CC(=O)Nc1cc2c(Nc3ccc(F)c(Cl)c3)ncnc2cc1OCCCN1CCOCC1 [Canertinib],106
6,CCCCC(=O)OCC(=O)[C@]1(O)Cc2c(O)c3c(c(O)c2[C@@H](O[C@H]2C[C@H](NC(=O)C(F)(F)F)[C@H](O)[C@H](C)O2)C1)C(=O)c1c(OC)cccc1C3=O [Valrubicin],746

# Test system: CAL-85-1
# Conditions: 72 h
# Procedure, shortened: as §1
row,Compound,"EC50, CellTiter-Glo [nM]"
1,C=CCc1cccc(/C=N/NC(=O)CN2CCN(Cc3ccccc3)CC2)c1O [PAC-1],5250
2,CC[C@@H]1C(=O)N(C)c2cnc(Nc3ccc(C(=O)NC4CCN(C)CC4)cc3OC)nc2N1C1CCCC1 [BI 2536],2.42
3,CC[C@H](C)C(=O)O[C@H]1C[C@H](O)C=C2C=C[C@H](C)[C@H](CC[C@@H](O)C[C@@H](O)CC(=O)O)[C@H]21 [Pravastatin],8620
4,O=C(/C=C/c1cccnc1)NCCCCC1CCN(C(=O)c2ccccc2)CC1 [Daporinad],7.79
5,Nc1nc2[nH]cc(CCc3ccc(C(=O)N[C@@H](CCC(=O)O)C(=O)O)cc3)c2c(=O)[nH]1 [Pemetrexed],41.1
6,Cc1cnc(NC(=O)Nc2cc(Br)c(C)cc2OC[C@@H]2CNCCO2)cn1 [Rabusertib],> 1000
7,Nc1ccccc1NC(=O)c1ccc(CNC(=O)OCc2cccnc2)cc1 [Entinostat],8310
8,C=CC(=O)Nc1cc2c(Nc3ccc(F)c(Cl)c3)ncnc2cc1OCCCN1CCOCC1 [Canertinib],595
9,CCCCC(=O)OCC(=O)[C@]1(O)Cc2c(O)c3c(c(O)c2[C@@H](O[C@H]2C[C@H](NC(=O)C(F)(F)F)[C@H](O)[C@H](C)O2)C1)C(=O)c1c(OC)cccc1C3=O [Valrubicin],1340

# Test system: MDA-MB-468
# Conditions: 72 h
# Procedure, shortened: as §1
row,"EC50, CellTiter-Glo [nM]",Compound
1,4580,C=CCc1cccc(/C=N/NC(=O)CN2CCN(Cc3ccccc3)CC2)c1O [PAC-1]
2,2.04,CC[C@@H]1C(=O)N(C)c2cnc(Nc3ccc(C(=O)NC4CCN(C)CC4)cc3OC)nc2N1C1CCCC1 [BI 2536]
3,5910,CC[C@H](C)C(=O)O[C@H]1C[C@H](O)C=C2C=C[C@H](C)[C@H](CC[C@@H](O)C[C@@H](O)CC(=O)O)[C@H]21 [Pravastatin]
4,3.53,O=C(/C=C/c1cccnc1)NCCCCC1CCN(C(=O)c2ccccc2)CC1 [Daporinad]
5,1350,CCc1cncnc1N1CCN(Cc2nc3ccc(C(F)(F)F)cc3[nH]2)CC1
6,7440,CC[C@H](Nc1ncnc2[nH]cnc12)c1nc2cccc(F)c2c(=O)n1-c1ccccc1 [GS-1101]
7,4170,Nc1ccccc1NC(=O)c1ccc(CNC(=O)OCc2cccnc2)cc1 [Entinostat]
8,1120,C=CC(=O)Nc1cc2c(Nc3ccc(F)c(Cl)c3)ncnc2cc1OCCCN1CCOCC1 [Canertinib]
9,290,CCCCC(=O)OCC(=O)[C@]1(O)Cc2c(O)c3c(c(O)c2[C@@H](O[C@H]2C[C@H](NC(=O)C(F)(F)F)[C@H](O)[C@H](C)O2)C1)C(=O)c1c(OC)cccc1C3=O [Valrubicin]

# Test system: MFM-223
# Conditions: 72 h
# Procedure, shortened: as §1
row,Compound,"EC50, CellTiter-Glo [nM]"
1,C=CCc1cccc(/C=N/NC(=O)CN2CCN(Cc3ccccc3)CC2)c1O [PAC-1],8680
2,CC[C@@H]1C(=O)N(C)c2cnc(Nc3ccc(C(=O)NC4CCN(C)CC4)cc3OC)nc2N1C1CCCC1 [BI 2536],2.27
3,CC[C@H](C)C(=O)O[C@H]1C[C@H](O)C=C2C=C[C@H](C)[C@H](CC[C@@H](O)C[C@@H](O)CC(=O)O)[C@H]21 [Pravastatin],> 10000
4,CNC(=O)c1cc(Oc2ccc(NC(=O)Nc3cc(C(C)(C)C)nn3-c3ccc4ncccc4c3)c(F)c2)ccn1 [Rebastinib],31.3
5,COc1cc2c(Oc3ccc4[nH]c(C)cc4c3F)ncnc2cc1OCCCN1CCCC1 [Cediranib],338
6,O=C(/C=C/c1cccnc1)NCCCCC1CCN(C(=O)c2ccccc2)CC1 [Daporinad],2.11
7,COc1cc2nccc(Oc3ccc(NC(=O)Nc4cc(C)on4)c(Cl)c3)c2cc1OC [Tivozanib],1820
8,Nc1ccccc1NC(=O)c1ccc(CNC(=O)OCc2cccnc2)cc1 [Entinostat],4850
9,C=CC(=O)Nc1cc2c(Nc3ccc(F)c(Cl)c3)ncnc2cc1OCCCN1CCOCC1 [Canertinib],5500
10,CCCCC(=O)OCC(=O)[C@]1(O)Cc2c(O)c3c(c(O)c2[C@@H](O[C@H]2C[C@H](NC(=O)C(F)(F)F)[C@H](O)[C@H](C)O2)C1)C(=O)c1c(OC)cccc1C3=O [Valrubicin],4320

# Test system: MDA-MB-231
# Conditions: 72 h
# Procedure, shortened: as §1
row,"EC50, CellTiter-Glo [nM]",Compound
1,3100,C=CCc1cccc(/C=N/NC(=O)CN2CCN(Cc3ccccc3)CC2)c1O [PAC-1]
2,2.75,CC[C@@H]1C(=O)N(C)c2cnc(Nc3ccc(C(=O)NC4CCN(C)CC4)cc3OC)nc2N1C1CCCC1 [BI 2536]
3,29.6,O=C(/C=C/c1cccnc1)NCCCCC1CCN(C(=O)c2ccccc2)CC1 [Daporinad]
4,652,Nc1nc2[nH]cc(CCc3ccc(C(=O)N[C@@H](CCC(=O)O)C(=O)O)cc3)c2c(=O)[nH]1 [Pemetrexed]
5,8500,COc1cc2nccc(Oc3ccc(NC(=O)Nc4cc(C)on4)c(Cl)c3)c2cc1OC [Tivozanib]
6,4740,CC[C@H](Nc1ncnc2[nH]cnc12)c1nc2cccc(F)c2c(=O)n1-c1ccccc1 [GS-1101]
7,2600,CC1=C(/C=C/C(C)=C/C=C/C(C)=C/C(=O)O)C(C)(C)CCC1 [Tretinoin]
8,7170,Nc1ccccc1NC(=O)c1ccc(CNC(=O)OCc2cccnc2)cc1 [Entinostat]
9,1630,C=CC(=O)Nc1cc2c(Nc3ccc(F)c(Cl)c3)ncnc2cc1OCCCN1CCOCC1 [Canertinib]
10,4480,CCCCC(=O)OCC(=O)[C@]1(O)Cc2c(O)c3c(c(O)c2[C@@H](O[C@H]2C[C@H](NC(=O)C(F)(F)F)[C@H](O)[C@H](C)O2)C1)C(=O)c1c(OC)cccc1C3=O [Valrubicin]

# Test system: DU-4475
# Conditions: 72 h
# Procedure, shortened: as §1
row,Compound,"EC50, CellTiter-Glo [nM]"
1,C=CCc1cccc(/C=N/NC(=O)CN2CCN(Cc3ccccc3)CC2)c1O [PAC-1],4350
2,CC[C@@H]1C(=O)N(C)c2cnc(Nc3ccc(C(=O)NC4CCN(C)CC4)cc3OC)nc2N1C1CCCC1 [BI 2536],10.2
3,CC[C@H](C)C(=O)O[C@H]1C[C@H](O)C=C2C=C[C@H](C)[C@H](CC[C@@H](O)C[C@@H](O)CC(=O)O)[C@H]21 [Pravastatin],6590
4,CCCS(=O)(=O)Nc1ccc(F)c(C(=O)c2c[nH]c3ncc(-c4ccc(Cl)cc4)cc23)c1F [Vemurafenib],551
5,O=C(/C=C/c1cccnc1)NCCCCC1CCN(C(=O)c2ccccc2)CC1 [Daporinad],6.78
6,Nc1ccccc1NC(=O)c1ccc(CNC(=O)OCc2cccnc2)cc1 [Entinostat],3830
7,C=CC(=O)Nc1cc2c(Nc3ccc(F)c(Cl)c3)ncnc2cc1OCCCN1CCOCC1 [Canertinib],8210
8,CCCCC(=O)OCC(=O)[C@]1(O)Cc2c(O)c3c(c(O)c2[C@@H](O[C@H]2C[C@H](NC(=O)C(F)(F)F)[C@H](O)[C@H](C)O2)C1)C(=O)c1c(OC)cccc1C3=O [Valrubicin],462

# Test system: HDQ-P1
# Conditions: 72 h
# Procedure, shortened: as §1
row,Compound,"EC50, CellTiter-Glo [nM]"
1,C=CCc1cccc(/C=N/NC(=O)CN2CCN(Cc3ccccc3)CC2)c1O [PAC-1],4980
2,CC[C@@H]1C(=O)N(C)c2cnc(Nc3ccc(C(=O)NC4CCN(C)CC4)cc3OC)nc2N1C1CCCC1 [BI 2536],21.4
3,CC[C@H](C)C(=O)O[C@H]1C[C@H](O)C=C2C=C[C@H](C)[C@H](CC[C@@H](O)C[C@@H](O)CC(=O)O)[C@H]21 [Pravastatin],4740
4,O=C(/C=C/c1cccnc1)NCCCCC1CCN(C(=O)c2ccccc2)CC1 [Daporinad],16.3
5,COc1cc2nccc(Oc3ccc(NC(=O)Nc4cc(C)on4)c(Cl)c3)c2cc1OC [Tivozanib],3820
6,CC[C@H](Nc1ncnc2[nH]cnc12)c1nc2cccc(F)c2c(=O)n1-c1ccccc1 [GS-1101],4300
7,Nc1ccccc1NC(=O)c1ccc(CNC(=O)OCc2cccnc2)cc1 [Entinostat],2380
8,C=CC(=O)Nc1cc2c(Nc3ccc(F)c(Cl)c3)ncnc2cc1OCCCN1CCOCC1 [Canertinib],930
9,CCCCC(=O)OCC(=O)[C@]1(O)Cc2c(O)c3c(c(O)c2[C@@H](O[C@H]2C[C@H](NC(=O)C(F)(F)F)[C@H](O)[C@H](C)O2)C1)C(=O)c1c(OC)cccc1C3=O [Valrubicin],661

# Test system: CAL-120
# Conditions: 72 h
# Procedure, shortened: as §1
row,Compound,"EC50, CellTiter-Glo [nM]"
1,C=CCc1cccc(/C=N/NC(=O)CN2CCN(Cc3ccccc3)CC2)c1O [PAC-1],3790
2,Nc1nc(F)nc2c1ncn2[C@@H]1O[C@H](CO)[C@@H](O)[C@@H]1O [Fludarabine],> 10000
3,CC[C@@H]1C(=O)N(C)c2cnc(Nc3ccc(C(=O)NC4CCN(C)CC4)cc3OC)nc2N1C1CCCC1 [BI 2536],5.9
4,CC[C@H](C)C(=O)O[C@H]1C[C@H](O)C=C2C=C[C@H](C)[C@H](CC[C@@H](O)C[C@@H](O)CC(=O)O)[C@H]21 [Pravastatin],2310
5,CNC(=O)c1cc(Oc2ccc(NC(=O)Nc3cc(C(C)(C)C)nn3-c3ccc4ncccc4c3)c(F)c2)ccn1 [Rebastinib],155
6,O=C(/C=C/c1cccnc1)NCCCCC1CCN(C(=O)c2ccccc2)CC1 [Daporinad],9.73
7,C[C@H]1C[C@@H]2[C@H]([C@@H](O)C[C@@]3(C)[C@H]2CC[C@]3(O)C(=O)CO)[C@@]2(C)C=CC(=O)C=C12 [Methylprednisolone],23.5
8,CCc1cncnc1N1CCN(Cc2nc3ccc(C(F)(F)F)cc3[nH]2)CC1,> 10000
9,CC[C@H](Nc1ncnc2[nH]cnc12)c1nc2cccc(F)c2c(=O)n1-c1ccccc1 [GS-1101],8050
10,C=CC(=O)Nc1cc2c(Nc3ccc(F)c(Cl)c3)ncnc2cc1OCCCN1CCOCC1 [Canertinib],5390

# Test system: HCC1599
# Conditions: 72 h
# Procedure, shortened: as §1
row,"EC50, CellTiter-Glo [nM]",Compound
1,7690,C=CCc1cccc(/C=N/NC(=O)CN2CCN(Cc3ccccc3)CC2)c1O [PAC-1]
2,37.2,CC[C@@H]1C(=O)N(C)c2cnc(Nc3ccc(C(=O)NC4CCN(C)CC4)cc3OC)nc2N1C1CCCC1 [BI 2536]
3,3060,CC[C@H](C)C(=O)O[C@H]1C[C@H](O)C=C2C=C[C@H](C)[C@H](CC[C@@H](O)C[C@@H](O)CC(=O)O)[C@H]21 [Pravastatin]
4,4.15,O=C(/C=C/c1cccnc1)NCCCCC1CCN(C(=O)c2ccccc2)CC1 [Daporinad]
5,691,Cc1cnc(NC(=O)Nc2cc(Br)c(C)cc2OC[C@@H]2CNCCO2)cn1 [Rabusertib]
6,5530,CC1=C(/C=C/C(C)=C/C=C/C(C)=C/C(=O)O)C(C)(C)CCC1 [Tretinoin]
7,4840,Nc1ccccc1NC(=O)c1ccc(CNC(=O)OCc2cccnc2)cc1 [Entinostat]
8,586,C=CC(=O)Nc1cc2c(Nc3ccc(F)c(Cl)c3)ncnc2cc1OCCCN1CCOCC1 [Canertinib]
9,3220,CCCCC(=O)OCC(=O)[C@]1(O)Cc2c(O)c3c(c(O)c2[C@@H](O[C@H]2C[C@H](NC(=O)C(F)(F)F)[C@H](O)[C@H](C)O2)C1)C(=O)c1c(OC)cccc1C3=O [Valrubicin]

# Test system: Hs578T
# Conditions: 72 h
# Procedure, shortened: as §1
row,Compound,"EC50, CellTiter-Glo [nM]"
1,CC[C@@H]1C(=O)N(C)c2cnc(Nc3ccc(C(=O)NC4CCN(C)CC4)cc3OC)nc2N1C1CCCC1 [BI 2536],31.6
2,O=C(/C=C/c1cccnc1)NCCCCC1CCN(C(=O)c2ccccc2)CC1 [Daporinad],4.27
3,Nc1nc2[nH]cc(CCc3ccc(C(=O)N[C@@H](CCC(=O)O)C(=O)O)cc3)c2c(=O)[nH]1 [Pemetrexed],47.4
4,Cc1cnc(NC(=O)Nc2cc(Br)c(C)cc2OC[C@@H]2CNCCO2)cn1 [Rabusertib],354
